Laboratory results as given in ChEMBL document CHEMBL1909046, “DrugMatrix in vitro pharmacology data”.
Where a SMILES comes first, the peptide text is derived from it. Bridges are numbered along the chain shown (N, C = ends). [ ]: non-standard residue; d: D form. The star is where a group is joined. Threoninol(2S,3R) = C[C@@H](O)[C@H](CO)N*

Legend:
Cathepsin G = biological target: T1, Cathepsin G (Homo sapiens, UniProt P08311); format: tissue-based; details: neutrophil;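 further: inhibition of Cathepsin G enzyme activity, tested on an AMC-conjugated peptide substrate; in other assays of this panel Not Active means under 50% inhibition at 10 µM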
T1 sequence (P08311 whole entry): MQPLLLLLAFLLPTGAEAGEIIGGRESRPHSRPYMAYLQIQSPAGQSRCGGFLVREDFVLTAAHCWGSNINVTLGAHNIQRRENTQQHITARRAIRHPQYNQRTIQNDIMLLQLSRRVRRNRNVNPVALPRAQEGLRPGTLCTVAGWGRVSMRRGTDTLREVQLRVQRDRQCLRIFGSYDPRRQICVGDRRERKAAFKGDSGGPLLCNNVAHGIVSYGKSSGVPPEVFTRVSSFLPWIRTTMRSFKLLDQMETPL

[1] = biological target: Tyrosine-protein kinase Lck (Homo sapiens, UniProt P06239); test: DRUGMATRIX: Protein Tyrosine Kinase, LCK enzyme inhibition (substrate: Poly(Glu:Tyr)); format: cell-based, Insect cells; details: insect cells; Not Active = under 50% inhibition at 10 µM
Tyrosine-protein kinase Lck, sequence (P06239 whole entry): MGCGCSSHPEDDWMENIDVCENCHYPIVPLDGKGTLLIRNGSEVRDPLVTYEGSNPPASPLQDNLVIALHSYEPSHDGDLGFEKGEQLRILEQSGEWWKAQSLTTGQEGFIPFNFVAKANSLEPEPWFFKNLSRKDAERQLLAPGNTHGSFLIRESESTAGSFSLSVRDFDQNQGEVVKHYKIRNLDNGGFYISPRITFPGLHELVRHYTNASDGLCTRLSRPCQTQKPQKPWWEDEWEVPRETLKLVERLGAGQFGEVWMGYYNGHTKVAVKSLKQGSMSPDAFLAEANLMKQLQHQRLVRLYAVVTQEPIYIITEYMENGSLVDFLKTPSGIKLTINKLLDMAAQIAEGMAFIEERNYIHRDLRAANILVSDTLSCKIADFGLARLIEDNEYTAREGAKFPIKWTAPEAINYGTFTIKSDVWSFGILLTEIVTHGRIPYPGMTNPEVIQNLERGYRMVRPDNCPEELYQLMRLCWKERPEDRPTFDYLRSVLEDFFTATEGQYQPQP

[2] = biological target: T2, C-X-C chemokine receptor type 2 (Homo sapiens, UniProt P25025); format: cell membranes, Membrane; details: cho-k1; further: in other assays of this panel Not Active means under 50% inhibition at 10 µM
T2 sequence (P25025 whole entry): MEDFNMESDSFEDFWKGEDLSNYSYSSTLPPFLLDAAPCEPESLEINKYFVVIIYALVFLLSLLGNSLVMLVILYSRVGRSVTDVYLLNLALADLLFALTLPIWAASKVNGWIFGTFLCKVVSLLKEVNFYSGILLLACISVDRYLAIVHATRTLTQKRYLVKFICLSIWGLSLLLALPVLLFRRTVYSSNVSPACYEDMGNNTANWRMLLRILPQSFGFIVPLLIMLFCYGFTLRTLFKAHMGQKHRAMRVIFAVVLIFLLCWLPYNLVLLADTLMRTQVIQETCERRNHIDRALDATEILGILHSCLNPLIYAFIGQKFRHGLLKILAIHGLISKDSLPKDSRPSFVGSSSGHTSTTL

[3] = biological target: Mitogen-activated protein kinase 14 (Homo sapiens, UniProt Q16539); design: species or system Escherichia coli;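 further: inhibition of p38alpha enzyme activity in a biochemical kinase assay, with myelin basic protein serving as substrate; in other assays of this panel Not Active means under 50% inhibition at 10 µM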
Mitogen-activated protein kinase 14, sequence (Q16539 whole entry): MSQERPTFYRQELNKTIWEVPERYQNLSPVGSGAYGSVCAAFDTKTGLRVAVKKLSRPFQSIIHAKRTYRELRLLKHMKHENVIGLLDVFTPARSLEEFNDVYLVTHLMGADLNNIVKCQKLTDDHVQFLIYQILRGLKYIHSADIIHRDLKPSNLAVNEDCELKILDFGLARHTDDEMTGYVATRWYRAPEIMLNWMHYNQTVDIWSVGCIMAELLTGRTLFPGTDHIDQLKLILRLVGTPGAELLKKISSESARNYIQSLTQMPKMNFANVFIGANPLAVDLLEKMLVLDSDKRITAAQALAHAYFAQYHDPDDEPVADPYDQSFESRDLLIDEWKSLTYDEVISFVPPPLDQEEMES

Acetylcholinesterase = Acetylcholinesterase (Homo sapiens, UniProt P22303); test: DRUGMATRIX: Acetylcholinesterase enzyme inhibition (substrate: acetylthiocholine); format: cell-based, HEK293; details: Not Active = under 50% inhibition at 10 µM
Acetylcholinesterase, sequence (P22303 whole entry): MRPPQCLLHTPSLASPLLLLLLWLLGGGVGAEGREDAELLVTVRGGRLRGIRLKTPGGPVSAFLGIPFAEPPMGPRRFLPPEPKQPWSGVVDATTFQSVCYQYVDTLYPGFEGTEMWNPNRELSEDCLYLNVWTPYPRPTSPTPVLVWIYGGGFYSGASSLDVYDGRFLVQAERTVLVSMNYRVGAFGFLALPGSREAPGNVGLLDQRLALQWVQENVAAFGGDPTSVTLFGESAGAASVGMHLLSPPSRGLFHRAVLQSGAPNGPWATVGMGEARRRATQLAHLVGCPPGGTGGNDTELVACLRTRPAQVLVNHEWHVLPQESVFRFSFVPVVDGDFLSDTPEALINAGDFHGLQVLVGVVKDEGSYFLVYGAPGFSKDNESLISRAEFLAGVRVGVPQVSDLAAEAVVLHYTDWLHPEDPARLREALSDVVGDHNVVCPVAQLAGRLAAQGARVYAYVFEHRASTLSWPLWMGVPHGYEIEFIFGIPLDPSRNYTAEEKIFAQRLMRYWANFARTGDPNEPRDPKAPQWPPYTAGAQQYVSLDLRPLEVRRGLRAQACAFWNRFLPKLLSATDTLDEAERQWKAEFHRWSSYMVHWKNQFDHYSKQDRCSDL

D(1A) dopamine receptor = D(1A) dopamine receptor (Homo sapiens, UniProt P21728); test: DRUGMATRIX: Dopamine D1 radioligand binding (ligand: [3H] SCH-23390); format: cell membranes, Membrane; details: cho; Not Active = under 50% inhibition at 10 µM
D(1A) dopamine receptor, sequence (P21728 whole entry): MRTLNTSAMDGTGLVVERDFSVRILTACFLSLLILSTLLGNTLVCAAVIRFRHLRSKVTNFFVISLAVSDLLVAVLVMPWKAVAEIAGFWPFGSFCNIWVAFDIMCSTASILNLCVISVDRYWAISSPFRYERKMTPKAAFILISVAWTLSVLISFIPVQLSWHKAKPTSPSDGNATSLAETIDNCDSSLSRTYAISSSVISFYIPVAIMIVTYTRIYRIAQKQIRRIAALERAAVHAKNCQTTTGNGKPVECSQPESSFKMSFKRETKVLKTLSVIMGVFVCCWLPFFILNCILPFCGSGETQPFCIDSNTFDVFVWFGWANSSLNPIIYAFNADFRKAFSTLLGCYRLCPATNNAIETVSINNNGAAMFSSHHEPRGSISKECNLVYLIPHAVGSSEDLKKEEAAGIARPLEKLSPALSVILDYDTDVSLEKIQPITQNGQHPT

[4] = biological target: Beta-1 adrenergic receptor (Homo sapiens, UniProt P08588); test: DRUGMATRIX: Adrenergic beta1 radioligand binding (ligand: [125I] Cyanopindolol); format: cell membranes, CHO-K1, Membrane; details: cho-k1; Not Active = under 50% inhibition at 10 µM
Beta-1 adrenergic receptor, sequence (P08588 whole entry): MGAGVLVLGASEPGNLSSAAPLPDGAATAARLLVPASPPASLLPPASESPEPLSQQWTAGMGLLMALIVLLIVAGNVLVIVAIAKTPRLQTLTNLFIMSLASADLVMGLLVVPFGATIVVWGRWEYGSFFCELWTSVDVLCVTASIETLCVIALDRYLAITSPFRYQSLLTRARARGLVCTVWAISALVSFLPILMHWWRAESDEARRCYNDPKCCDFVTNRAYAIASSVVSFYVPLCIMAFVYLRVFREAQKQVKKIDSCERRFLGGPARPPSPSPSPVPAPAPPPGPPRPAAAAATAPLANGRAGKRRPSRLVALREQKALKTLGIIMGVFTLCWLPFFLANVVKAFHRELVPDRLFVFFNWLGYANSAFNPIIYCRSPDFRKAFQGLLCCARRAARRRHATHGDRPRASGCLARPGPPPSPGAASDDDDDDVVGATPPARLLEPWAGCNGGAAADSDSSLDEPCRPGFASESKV

CADMIUM DICHLORIDE
Not Active: IC50 (Cathepsin G) | Ki (Cathepsin G) | IC50 [1] | Ki [1] | IC50 [2] | Ki [2] | IC50 [3] | Ki [3] | IC50 (Acetylcholinesterase; hek293) | Ki (Acetylcholinesterase; hek293) | IC50 (D(1A) dopamine receptor) | Ki (D(1A) dopamine receptor) | IC50 [4] | Ki [4]

CCCN(CCC)C(=O)C(CCC(=O)O)NC(=O)c1ccccc1 (centres undefined) [PROGLUMIDE]
Not Active: IC50 (Cathepsin G) | IC50 [1] | IC50 [2] | IC50 [3] | IC50 (Acetylcholinesterase; hek293) | IC50 (D(1A) dopamine receptor) | IC50 [4]

O=C(N[C@H](CO)[C@H](O)c1ccc([N+](=O)[O-])cc1)C(Cl)Cl [CHLORAMPHENICOL]
Not Active: IC50 (Cathepsin G) | IC50 [1] | IC50 [2] | IC50 [3] | IC50 (Acetylcholinesterase; hek293) | IC50 (D(1A) dopamine receptor) | IC50 [4]

CCCCOc1ccc(OCCCN2CCOCC2)cc1 [PRAMOXINE]
Not Active: IC50 (Cathepsin G) | IC50 [1] | IC50 [2] | IC50 [3] | IC50 (Acetylcholinesterase; hek293) | IC50 (D(1A) dopamine receptor) | IC50 [4]

CC(C)(C(=O)c1cccnc1)c1cccnc1 [METYRAPONE]
Not Active: IC50 (Cathepsin G) | IC50 [1] | IC50 [2] | IC50 [3] | IC50 (Acetylcholinesterase; hek293) | IC50 (D(1A) dopamine receptor) | IC50 [4]

CC(=O)Nc1cccc(O)c1 [METACETAMOL]
Not Active: IC50 (Cathepsin G) | IC50 [1] | IC50 [2] | IC50 [3] | IC50 (Acetylcholinesterase; hek293) | IC50 (D(1A) dopamine receptor) | IC50 [4]

NC(=O)c1cnccn1 [PYRAZINAMIDE]
Not Active: IC50 (Cathepsin G) | IC50 [1] | IC50 [2] | IC50 [3] | IC50 (Acetylcholinesterase; hek293) | IC50 (D(1A) dopamine receptor) | IC50 [4]

CC[C@@H](CO)NCCN[C@@H](CC)CO [ETHAMBUTOL]
Not Active: IC50 (Cathepsin G) | IC50 [1] | IC50 [2] | IC50 [3] | IC50 (Acetylcholinesterase; hek293) | IC50 (D(1A) dopamine receptor) | IC50 [4]

CC(C)(Oc1ccc(C2CCCc3ccccc32)cc1)C(=O)O (centres undefined) [NAFENOPIN]
Not Active: IC50 (Cathepsin G) | IC50 [1] | IC50 [2] | IC50 (Acetylcholinesterase; hek293) | IC50 (D(1A) dopamine receptor) | IC50 [4]
3.74 µM: IC50 ([3]; read-out: IC50)

C[C@@H]1C[C@@H]([C@H](O)CC2CC(=O)NC(=O)C2)C(=O)[C@@H](C)C1 [CYCLOHEXIMIDE]
Not Active: IC50 (Cathepsin G) | IC50 [1] | IC50 [2] | IC50 [3] | IC50 (Acetylcholinesterase; hek293) | IC50 (D(1A) dopamine receptor) | IC50 [4]

CCn1cc(C(=O)O)c(=O)c2cc(F)c(N3CCN(C)CC3)cc21 [PEFLOXACIN]
Not Active: IC50 (Cathepsin G) | IC50 [1] | IC50 [2] | IC50 [3] | IC50 (Acetylcholinesterase; hek293) | IC50 (D(1A) dopamine receptor) | IC50 [4]

CCN(CC)CCOC(=O)c1ccc(N)cc1 [PROCAINE]
Not Active: IC50 (Cathepsin G) | IC50 [1] | IC50 [2] | IC50 [3] | IC50 (Acetylcholinesterase; hek293) | IC50 (D(1A) dopamine receptor) | IC50 [4]

CCCC(CCC)C(=O)O [VALPROIC ACID]
Not Active: IC50 (Cathepsin G) | IC50 [1] | IC50 [2] | IC50 [3] | IC50 (Acetylcholinesterase; hek293) | IC50 (D(1A) dopamine receptor) | IC50 [4]

S=C=Nc1cccc2ccccc12 [1-NAPHTHYLISOTHIOCYANATE]
Not Active: IC50 (Cathepsin G) | IC50 [1] | IC50 [2] | IC50 [3] | IC50 (Acetylcholinesterase; hek293) | IC50 [4]

COc1ccc2cc([C@H](C)C(=O)O)ccc2c1 [NAPROXEN]
Not Active: IC50 (Cathepsin G) | IC50 [1] | IC50 [2] | IC50 [3] | IC50 (D(1A) dopamine receptor) | IC50 [4]

Cc1ccccc1C(=O)N1CCC(Cc2ccccc2)CC1
Not Active: IC50 (Cathepsin G) | IC50 [1] | IC50 [2] | IC50 (Acetylcholinesterase; hek293) | IC50 (D(1A) dopamine receptor) | IC50 [4]
0.329 µM: IC50 ([3]; read-out: IC50)

C[C@@H](O)[C@H](CO)NC(=O)[C@@H]1CSSC[C@H](NC(=O)[C@H](N)Cc2ccccc2)C(=O)N[C@@H](Cc2ccccc2)C(=O)N[C@H](Cc2c[nH]c3ccccc23)C(=O)N[C@@H](CCCCN)C(=O)N[C@@H]([C@@H](C)O)C(=O)N1 (H-[dF]CF[dW]KTC-{Threoninol(2S,3R)}; disulfide 2-7)
Not Active: IC50 (Cathepsin G) | IC50 [1] | IC50 [2] | IC50 [3] | IC50 (Acetylcholinesterase; hek293) | IC50 (D(1A) dopamine receptor) | IC50 [4]

Cc1nccn1CC1CCc2c(c3ccccc3n2C)C1=O (centres undefined) [ONDANSETRON]
Not Active: IC50 (Cathepsin G) | IC50 [1] | IC50 [2] | IC50 [3] | IC50 (Acetylcholinesterase; hek293) | IC50 (D(1A) dopamine receptor) | IC50 [4]

C#C[C@]1(O)CC[C@H]2[C@@H]3CCc4cc(OC)ccc4[C@H]3CC[C@@]21C [MESTRANOL]
Not Active: IC50 (Cathepsin G) | IC50 [1] | IC50 [2] | IC50 [3] | IC50 (Acetylcholinesterase; hek293) | IC50 (D(1A) dopamine receptor) | IC50 [4]

COc1cc2c(c3oc(=O)c4c(c13)CCC4=O)[C@@H]1C=CO[C@@H]1O2 [AFLATOXIN]
Not Active: IC50 (Cathepsin G) | Ki (Cathepsin G) | IC50 [1] | Ki [1] | IC50 [2] | Ki [2] | IC50 [3] | Ki [3] | IC50 (Acetylcholinesterase; hek293) | Ki (Acetylcholinesterase; hek293) | IC50 (D(1A) dopamine receptor) | Ki (D(1A) dopamine receptor) | IC50 [4] | Ki [4]

CC1(C)O[C@@H]2C[C@H]3[C@@H]4C[C@H](F)C5=CC(=O)CC[C@]5(C)[C@H]4[C@@H](O)C[C@]3(C)[C@]2(C(=O)CO)O1 [FLURANDRENOLIDE]
Not Active: IC50 (Cathepsin G) | IC50 [1] | IC50 [2] | IC50 [3] | IC50 (Acetylcholinesterase; hek293) | IC50 (D(1A) dopamine receptor) | IC50 [4]

CC1(C)O[C@@H]2C[C@H]3[C@@H]4C[C@H](F)C5=CC(=O)C=C[C@]5(C)[C@@]4(F)[C@@H](O)C[C@]3(C)[C@]2(C(=O)CO)O1 [FLUOCINOLONE ACETONIDE]
Not Active: IC50 (Cathepsin G) | IC50 [1] | IC50 [2] | IC50 [3] | IC50 (Acetylcholinesterase; hek293) | IC50 (D(1A) dopamine receptor) | IC50 [4]

CC(C(=O)O)c1cccc(C(=O)c2ccccc2)c1 (centres undefined) [KETOPROFEN]
Not Active: IC50 (Cathepsin G) | IC50 [1] | IC50 [2] | IC50 [3] | IC50 (Acetylcholinesterase; hek293) | IC50 (D(1A) dopamine receptor) | IC50 [4]

NC(=O)NO [HYDROXYUREA]
Not Active: IC50 (Cathepsin G) | IC50 [1] | IC50 [2] | IC50 [3] | IC50 (Acetylcholinesterase; hek293) | IC50 (D(1A) dopamine receptor) | IC50 [4]

O=c1ccc2ccccc2o1 [COUMARIN]
Not Active: IC50 (Cathepsin G) | IC50 [1] | IC50 [2] | IC50 [3] | IC50 (Acetylcholinesterase; hek293) | IC50 (D(1A) dopamine receptor) | IC50 [4]

CN1C(=O)COc2c(C(=O)NC3CN4CCC3CC4)cc(Cl)cc21 (centres undefined) [AZASETRON]
Not Active: IC50 (Cathepsin G) | IC50 [1] | IC50 [2] | IC50 [3] | IC50 (Acetylcholinesterase; hek293) | IC50 (D(1A) dopamine receptor) | IC50 [4]

C[C@H]1C[C@H]2[C@@H]3CCC4=CC(=O)C=C[C@]4(C)[C@@]3(Cl)[C@@H](O)C[C@]2(C)[C@@]1(O)C(=O)CO [BECLOMETHASONE]
Not Active: IC50 (Cathepsin G) | IC50 [1] | IC50 [2] | IC50 [3] | IC50 (Acetylcholinesterase; hek293) | IC50 (D(1A) dopamine receptor) | IC50 [4]

CCCC(=O)Nc1ccc(OCC(O)CNC(C)C)c(C(C)=O)c1 (centres undefined) [ACEBUTOLOL]
Not Active: IC50 (Cathepsin G) | IC50 [1] | IC50 [2] | IC50 [3] | IC50 (Acetylcholinesterase; hek293) | IC50 (D(1A) dopamine receptor)

CCc1c2c(nc3ccc(OC(=O)N4CCC(N5CCCCC5)CC4)cc13)-c1cc3c(c(=O)n1C2)COC(=O)[C@]3(O)CC [IRINOTECAN]
Not Active: IC50 (Cathepsin G) | IC50 [1] | IC50 [2] | IC50 [3] | IC50 (D(1A) dopamine receptor) | IC50 [4]

CN(C)c1ccc(C(=C2C=CC(=[N+](C)C)C=C2)c2ccc(N(C)C)cc2)cc1.[Cl-] [GENTIAN VIOLET]
5.85 µM: IC50 (Acetylcholinesterase; read-out: IC50)
Not Active: IC50 (Cathepsin G) | IC50 [1] | IC50 [2] | IC50 [3]

COc1ccccc1C(=O)N1CCC(Cc2ccccc2)CC1
Not Active: IC50 (Cathepsin G) | IC50 [1] | IC50 [2] | IC50 (Acetylcholinesterase; hek293) | IC50 (D(1A) dopamine receptor) | IC50 [4]
